Data: article PMC5340791, “New approaches for the reliable in vitro assessment of binding affinity based on high-resolution real-time data acquisition of radioligand-receptor binding kinetics” (EJNMMI Research, 2017)

Assays:
[1] = biological target: T1, human adenosine A3 receptor (CHO-K1-hA3R cells) (Homo sapiens, UniProt P0DMS8); experiment: Competitive real-time cell-binding studies (LigandTracer), displacement of [125I]-AB-MECA; conditions: 0.7 nM [125I]-AB-MECA, ambient temperature, Cheng-Prusoff, mean ± SEM, three independent experiments
T1 construct: expressed in transfected cells
T1 sequence (P0DMS8 1-318): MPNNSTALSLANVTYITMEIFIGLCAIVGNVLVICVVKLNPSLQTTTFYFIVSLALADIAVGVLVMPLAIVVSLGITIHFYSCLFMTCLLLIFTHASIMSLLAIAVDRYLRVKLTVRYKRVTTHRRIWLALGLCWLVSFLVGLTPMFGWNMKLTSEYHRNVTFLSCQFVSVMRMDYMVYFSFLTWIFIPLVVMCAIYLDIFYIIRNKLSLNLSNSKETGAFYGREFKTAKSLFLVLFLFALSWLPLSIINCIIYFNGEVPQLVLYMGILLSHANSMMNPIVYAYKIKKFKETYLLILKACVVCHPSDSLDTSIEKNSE
Protocol: The measurements were made according to the assay protocol as previously described above. […] The experiments were initiated with a baseline measurement (10–15 min). […] Inhibition of the radioligand was performed by adding different concentration series (1–500 nM) of unlabelled compounds (A3R antagonists) each after visual binding equilibrium. At least four different concentrations of competitor, spanning three orders of magnitude adjusted appropriately for the IC50 of each compound, were used. Unspecific binding was determined in the presence of a high concentration (0.5–100 μM) of the non-labelled competitor substance. The observed association phase of the radioligand and the dissociation phase of each consecutive concentration of the competitor substance were monitored in real-time until visual binding equilibrium was reached. All non-labelled compounds were initially dissolved in DMSO and diluted with deionized water to the final concentration, where the amount of DMSO never exceeded 5%. Cytophysiological conditions and cell attachment were examined continuously during the whole course of the experiment with the perimeter trace of the LigandTracer® software (version 1.0.1).
Raw data from the LigandTracer® measurements were analysed in GraphPad Prism 6.0 (GraphPad Software, Inc., San Diego, CA). Experiments were conducted at least as a triplicate with different batches of radioligand and biological target material to avoid systematic bias and to assure statistical certainty. […] Transformed data was analysed using “one-phase association” curve fitting algorithm as outlined in the following equation:2 Y=Y0+Plateau−Y0*1−e^−k*x where “x” is a given time and “Y” corresponds to the amount of radioligand binding for a dedicated time point. “Y 0” is the initial value of “Y” at the beginning of radioligand incubation and “plateau” indicates the maximum amount of the bound radioligand after equilibrium. “k” is the rate constant expressed in reciprocal units of “x”.
Transformed data were analysed by using “dissociation—one-phase exponential decay” curve fit as follows:3 Y=Y0−NS*e^−k*x+NS where “x” is a given time and “Y” corresponds to the amount of bound radioligand for a dedicated time point. “Y 0” is the initial value of “Y” at the beginning of each dissociation phase and “NS” indicates the steady state of radioligand binding in the presence of dedicated cold competitor after infinite time. “k” is the rate constant expressed in reciprocal units of “x”.
Equilibrium binding data determined in Eqs. (2) and (3) served as input parameters for the calculation of the IC50 using “log(inhibitor) vs. response—variable slope (four parameters)” nonlinear regression algorithm as described below:4 Y=Bottom+Top−Bottom/1+10^logIC50−C*HillSlope where “C” is the logarithm of the competitor concentration and “Y” reflects the dedicated amount of bound radioligand at equilibrium obtained from Eq. (3). “Top” indicates the maximum amount of radioligand binding (without any competitor) whereas the corresponding value is derived from Eq. (2). “Bottom” expresses the amount of unspecific radioligand binding in presence of a very high concentration of competitor. The dedicated value is determined by Eq. (3) and corresponds to the “NS” value of the last inhibitor concentration. The “HillSlope” reflects the slope factor, which indicates the steepness of the resulting inhibition curve. […] The resulting IC50 was converted into the K i using Cheng-Prusoff Eq. (3).

[2] = HPLC-based measurement of the logarithm of the octanol-water partition coefficient (HPLClogD7.4); format: physicochemical; conditions: pH 7.4, HPLC-based assay; mean ± SEM of three independent experiments
Protocol: The logarithm of the octanol-water partition coefficient of the A3R antagonists were determined at pH 7.4 by high-performance liquid chromatography (HPLC)-based assay (HPLClogD^7.4) modified from Donovan and Pescatore. Briefly, a mixture of two internal standards (toluene and triphenylene) with known logD values and defined retention times (k’) have been used. A3R antagonists were dissolved in methanol and injected onto a short polymeric ODP-50 column (20 × 4.0 mm, 5 μm pore size, Supelco, Bellefonte, PA, USA). A linear gradient from 10% methanol/90% phosphate buffer (25 mM, pH 7.4) to 100% methanol within 9.4 min at a flow rate of 1.5 mL/min were applied. Measurement and detection of the three retention times of toluene, triphenylene and A3R antagonists were performed at 260 and 285 nm. Between consecutive HPLC runs, 5 min for re-equilibration of the HPLC column were allowed. The logD values of the dedicated compounds were determined using the known logD values of triphenylene and toluene and the retention time of triphenylene, toluene and the unknown compounds according to the following formula:1 logPUnknown=logPtol−logPtriph*tUnknown+ttol*logPtriph−ttriph*logPtol/ttol−ttriph where “log P Unknown” is the logD value of the test compound and “t Unknown” the corresponding measured retention time of the dedicated substance. The logD values for the internal standards are abbreviated as “log P tol” (toluene) and “log P triph” (triphenylene), respectively. Measured retention times are indicated as “t tol” for toluene and “t triph” for triphenylene.

human A3R [3] = biological target: human A3R; design: method as in PMID 11462807, PMID 8190112, PMID 8576921; conditions: traditional binding assays, membranes from human A3R-transfected HEK-293 cells; ref [30], [32], [33]; read-out: Ki Literature; cited from earlier work
human A3R [4] = conditions: traditional saturation binding assays, membranes from human A3R-transfected HEK-293 cells; ref [29]; read-out: K d (Reported affinity); cited from earlier work

Row | Compound | Ki [1] [nM] | chromatographic logD [2] | Ki (human A3R [3]) [nM] | Kd (human A3R [4]) [nM]
1 | CCc1nc(-c2ccccc2)c(C(=O)OCCF)c(CC)c1C(=O)SCCF [(FE)^2@SUPPY, 2-fluoroethyl 4,6-diethyl-5-{[(2-fluoroethyl)sulfanyl]carbonyl}-2-phenylpyridine-3-carboxylate] | 8.05 ± 1.77 | 3.95 ± 0.38 | – | –
2 | CCc1nc(-c2ccccc2)c(C(=O)OC)c(CC)c1C(=O)SC [(Me)^2@SUPPY, methyl 4,6-diethyl-5-[(methylsulfanyl)carbonyl]-2-phenylpyridine-3-carboxylate] | 46.1 ± 6.66 | 3.66 ± 0.33 | – | –
3 | CCSC(=O)c1c(CC)nc(-c2ccccc2)c(C(=O)O)c1CC [DFE@SUPPY, 4,6-diethyl-5-[(ethylsulfanyl)carbonyl]-2-phenylpyridine-3-carboxylic acid] | 114 ± 16.9 | 0.97 ± 0.37 | – | –
4 | CCSC(=O)c1c(CC)nc(-c2ccccc2)c(C(=O)OCCF)c1CC [FE@SUPPY, 5-(2-fluoroethyl)2,4-diethyl-3-(ethylsulfanylcarbonyl)-6-phenylpyridine-5-carboxylate] | 8.51 ± 1.46 | 4.04 ± 0.36 | – | –
5 | CCOC(=O)c1c(-c2ccccc2)nc(CC)c(C(=O)SCCF)c1CC [FE@SUPPY:2, 5-ethyl 2,4-diethyl-3-((2-fluoroethyl)sulfanylcarbonyl)-6-phenylpyridine-5-carboxylate] | 8.24 ± 2.35 | 4.05 ± 0.36 | – | –
6 | CCc1nc(-c2ccccc2)c(C(=O)OC)c(CC)c1C(=O)SCCF [FEMe@SUPPY:2, methyl 4,6-diethyl-5-{[(2-fluoroethyl)sulfanyl]carbonyl}-2-phenylpyridine-3-carboxylate] | 41.2 ± 3.91 | 3.83 ± 0.36 | – | –
7 | CCOC(=O)C1=C(C)NC(c2ccccc2)=C(C(=O)OCc2ccccc2)C1C#Cc1ccccc1 (centres unmarked) [MRS1191, 1,4-dihydro-2-methyl-6-phenyl-4-(phenylethynyl)-3,5-pyridinedicarboxylic acid, 3-ethyl 5-(phenylmethyl) ester, reference compound] | – | 4.83 ± 0.01 | – | –
8 | CCCOC(=O)c1c(-c2ccccc2)nc(CC)c(C(=O)SCC)c1CCC [MRS1523, 2,3-ethyl-4,5-dipropyl-6-phenylpyridine-3-thiocarboxylate-5-carboxylate, reference compound] | 17.8 ± 2.88 | 4.85 ± 0.01 | 18.9 ± 4.1 | –
9 | CNC(=O)[C@H]1O[C@@H](n2cnc3c(NCc4ccc(N)c(I)c4)ncnc32)[C@H](O)[C@@H]1O [[^125I]-AB-MECA, [^125I]-4-aminobenzyl-5′-N-methylcarboxamideoadenosine] | – | – | – | 0.59 ± 0.02
